Source: patent publication US20230143604A1, “QW DOSING OF GIP RECEPTOR AGONIST PEPTIDE COMPOUNDS AND USES THEREOF” (TAKEDA PHARMACEUTICAL COMPANY LIMITED, priority 2020, published 2023)
Starred links: 1 amine or outer side, 2 acyl side, 3 side chain; linkers in the order of their positions; H or OH if unused. Positions of bridges follow the written chain, without caps; N, C: chain ends. Non-standard residues stand in square brackets, D forms with d. Residues, ends and D or L forms follow the SMILES beside them. Groups on a side chain read outwards from the residue. Chains are numbered I, II in the order given. *: point of attachment. C18 diacid = O=C(O)CCCCCCCCCCCCCCCCC(=O)*; C17 diacid = O=C(O)CCCCCCCCCCCCCCCC(=O)*; γGlu = O=C(O)[C@H](CCC(=O)[*:2])N[*:1]; NMeY = CN[C@@H](Cc1ccc(O)cc1)C(=O)O; AEEA = NCCOCCOCC(=O)O; Aib = CC(C)(N)C(=O)O

Assay: physchem
Summary of the method: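 3 mg of peptide treated with 100 μL portions of 200 mM phosphate buffer pH 7.4, sonicating/vortexing up to 1 min, with further buffer added until fully dissolved. Solubility then quantified by HPLC.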

[1] = pH 7.4, aqueous buffer, pH 7.4 Phosphate Buffer - Solubility, 200 mM Phosphate buffer pH 7.4
[2] = pH 7.4, solubility in phosphate buffer at pH 7.4, 200 mM phosphate buffer pH 7.4

Molecule | solubility (pH 7.4) | solubility (pH 7.4, aqueous buffer) | solubility [1] | solubility [2]
CC[C@H](C)[C@H](NC(=O)[C@H](CO)NC(=O)[C@H](Cc1ccc(O)cc1)NC(=O)[C@H](CC(=O)O)NC(=O)[C@H](CO)NC(=O)[C@@H](NC(=O)[C@H](Cc1ccccc1)NC(=O)[C@@H](NC(=O)CNC(=O)[C@H](CCC(=O)O)NC(=O)C(C)(C)NC(=O)[C@H](Cc1ccc(O)cc1)NC)[C@@H](C)O)[C@@H](C)CC)C(=O)N[C@@H](C)C(=O)N[C@@H](CCCCNC(=O)CNC(=O)CNC(=O)CNC(=O)CNC(=O)CC[C@H](NC(=O)CCCCCCCCCCCCCCCCC(=O)O)C(=O)O)C(=O)N[C@@H](CC(=O)O)C(=O)N[C@@H](CO)C(=O)NC(C)(C)C(=O)N[C@@H](C)C(=O)N[C@@H](CCC(N)=O)C(=O)NC(C)(C)C(=O)N[C@@H](CC(=O)O)C(=O)N[C@@H](Cc1ccccc1)C(=O)N[C@H](C(=O)N[C@@H](CC(N)=O)C(=O)N[C@@H](Cc1c[nH]c2ccccc12)C(=O)N[C@@H](CC(C)C)C(=O)N[C@@H](CC(C)C)C(=O)N[C@@H](C)C(=O)N[C@@H](CCC(N)=O)C(=O)N[C@@H](CCCCN)C(=O)NCC(=O)O)C(C)C [Compound 79] (H-[NMeY][Aib]EGTFISDYSIAK([Gly-Gly-Gly-Gly-γGlu-C18 diacid])DS[Aib]AQ[Aib]DFVNWLLAQKG-OH) | ≥ 15 mg/mL | ≥ 30 mg/mL |  | 
CC[C@H](C)[C@H](NC(=O)[C@H](CCCNC(=N)N)NC(=O)[C@H](CC(=O)O)NC(=O)[C@H](CCCCNC(=O)CNC(=O)CNC(=O)CNC(=O)CNC(=O)CNC(=O)CCCCCCCCCCCCCCCCC(=O)O)NC(=O)[C@H](C)NC(=O)[C@@H](NC(=O)[C@H](CO)NC(=O)[C@H](Cc1ccc(O)cc1)NC(=O)[C@H](CC(=O)O)NC(=O)[C@H](CO)NC(=O)[C@@H](NC(=O)[C@H](Cc1ccccc1)NC(=O)[C@@H](NC(=O)CNC(=O)[C@H](CCC(=O)O)NC(=O)C(C)(C)NC(=O)[C@H](Cc1ccc(O)cc1)NC)[C@@H](C)O)[C@@H](C)CC)[C@@H](C)CC)C(=O)N[C@@H](C)C(=O)N[C@@H](CCC(N)=O)C(=O)N[C@@H](CCCNC(=N)N)C(=O)N[C@@H](CC(N)=O)C(=O)N[C@@H](Cc1ccccc1)C(=O)N[C@H](C(=O)N[C@@H](CCC(=O)O)C(=O)N[C@@H](Cc1c[nH]c2ccccc12)C(=O)N[C@@H](CC(C)C)C(=O)N[C@@H](CC(C)C)C(=O)N[C@@H](C)C(=O)N[C@@H](CCC(N)=O)C(=O)N[C@@H](CO)C(=O)N1CCC[C@H]1C(=O)NCC(=O)O)C(C)C [Compound 180] | ≥ 15 mg/mL |  |  | 
I: H-[NMeY][Aib]EGTFISDYSIALDR[Aib]KQ[Aib]DFVNWLLAQSPSSGAPPPS-OH / II: {C18 diacid}-PAPAPGG (amide I:18-II:C) [Compound 102] |  |  | ≥ 60 mg/mL | ≥ 15 mg/mL
CC[C@H](C)[C@H](NC(=O)[C@H](Cc1ccccc1)NC(=O)[C@@H](NC(=O)CNC(=O)[C@H](CCC(=O)O)NC(=O)C(C)(C)NC(=O)[C@H](Cc1ccc(O)cc1)NC)[C@@H](C)O)C(=O)N[C@@H](CO)C(=O)N[C@@H](CC(=O)O)C(=O)N[C@@H](Cc1ccc(O)cc1)C(=O)N[C@@H](CO)C(=O)N[C@H](C(=O)NC(C)(C)C(=O)N[C@@H](CC(C)C)C(=O)N[C@@H](CC(=O)O)C(=O)N[C@@H](CCCNC(=N)N)C(=O)NC(C)(C)C(=O)N[C@@H](CCCCNC(=O)COCCOCCNC(=O)COCCOCCNC(=O)CC[C@H](NC(=O)CC[C@H](NC(=O)CCCCCCCCCCCCCCCCC(=O)O)C(=O)O)C(=O)O)C(=O)N[C@@H](CCC(N)=O)C(=O)NC(C)(C)C(=O)N[C@@H](CC(N)=O)C(=O)N[C@@H](Cc1ccccc1)C(=O)N[C@H](C(=O)N[C@@H](CC(N)=O)C(=O)N[C@@H](Cc1c[nH]c2ccccc12)C(=O)N[C@@H](CC(C)C)C(=O)N[C@@H](CC(C)C)C(=O)N[C@@H](C)C(=O)N[C@@H](CCC(N)=O)C(=O)N[C@@H](CO)C(=O)N1CCC[C@H]1C(=O)N[C@@H](CO)C(=O)N[C@@H](CO)C(=O)NCC(=O)N[C@@H](C)C(=O)N1CCC[C@H]1C(=O)N1CCC[C@H]1C(=O)N1CCC[C@H]1C(=O)N[C@@H](CO)C(N)=O)C(C)C)[C@@H](C)CC [Compound 100] (H-[NMeY][Aib]EGTFISDYSI[Aib]LDR[Aib]K([AEEA-AEEA-γGlu-γGlu-C18 diacid])Q[Aib]NFVNWLLAQSPSSGAPPPS-NH2) |  |  | ≥ 60 mg/mL | ≥ 15 mg/mL
CC[C@H](C)[C@H](NC(=O)[C@H](CO)NC(=O)[C@H](Cc1ccc(O)cc1)NC(=O)[C@H](CC(=O)O)NC(=O)[C@H](CO)NC(=O)[C@@H](NC(=O)[C@H](Cc1ccccc1)NC(=O)[C@@H](NC(=O)CNC(=O)[C@H](CCC(=O)O)NC(=O)C(C)(C)NC(=O)[C@H](Cc1ccc(O)cc1)NC)[C@@H](C)O)[C@@H](C)CC)C(=O)N[C@@H](C)C(=O)N[C@@H](CC(C)C)C(=O)N[C@@H](CC(=O)O)C(=O)N[C@@H](CCCNC(=N)N)C(=O)NC(C)(C)C(=O)N[C@@H](C)C(=O)N[C@@H](CCC(N)=O)C(=O)NC(C)(C)C(=O)N[C@@H](CCCCNC(=O)CNC(=O)CNC(=O)[C@@H]1CCCN1C(=O)[C@H](C)NC(=O)[C@@H]1CCCN1C(=O)[C@H](C)NC(=O)[C@@H]1CCCN1C(=O)CC[C@H](NC(=O)CCCCCCCCCCCCCCCCC(=O)O)C(=O)O)C(=O)N[C@@H](Cc1ccccc1)C(=O)N[C@H](C(=O)N[C@@H](CC(N)=O)C(=O)N[C@@H](Cc1c[nH]c2ccccc12)C(=O)N[C@@H](CC(C)C)C(=O)N[C@@H](CC(C)C)C(=O)N[C@@H](C)C(=O)N[C@@H](CCC(N)=O)C(=O)N[C@@H](CO)C(=O)N1CCC[C@H]1C(=O)NCC(=O)O)C(C)C [Compound 117] (I: H-[NMeY][Aib]EGTFISDYSIALDR[Aib]AQ[Aib]KFVNWLLAQSPG-OH / II: {C18 diacid-γGlu}-PAPAPGG; amide I:21-II:C) | ≥ 15 mg/mL | ≥ 30 mg/mL |  | 
CC[C@H](C)[C@H](NC(=O)[C@H](CO)NC(=O)[C@H](Cc1ccc(O)cc1)NC(=O)[C@H](CC(=O)O)NC(=O)[C@H](CO)NC(=O)[C@@H](NC(=O)[C@H](Cc1ccccc1)NC(=O)[C@@H](NC(=O)CNC(=O)[C@H](CCC(=O)O)NC(=O)C(C)(C)NC(=O)[C@@H](N)Cc1ccc(O)cc1)[C@@H](C)O)[C@@H](C)CC)C(=O)N[C@@H](C)C(=O)N[C@@H](CC(C)C)C(=O)N[C@@H](CC(=O)O)C(=O)N[C@@H](CCCCN)C(=O)NC(C)(C)C(=O)N[C@@H](C)C(=O)N[C@@H](CCC(N)=O)C(=O)N[C@@H](C)C(=O)N[C@@H](CCCCNC(=O)COCCOCCNC(=O)COCCOCCNC(=O)CC[C@H](NC(=O)CC[C@H](NC(=O)CCCCCCCCCCCCCCCC(=O)O)C(=O)O)C(=O)O)C(=O)N[C@@H](Cc1ccccc1)C(=O)N[C@H](C(=O)N[C@@H](CCC(=O)O)C(=O)N[C@@H](Cc1c[nH]c2ccccc12)C(=O)N[C@@H](CC(C)C)C(=O)N[C@@H](CC(C)C)C(=O)N[C@@H](C)C(=O)N[C@@H](CCC(N)=O)C(=O)N[C@@H](CCCNC(=N)N)C(=O)NCC(=O)O)C(C)C [Compound 131] (H-Y[Aib]EGTFISDYSIALDK[Aib]AQAK([AEEA-AEEA-γGlu-γGlu-C17 diacid])FVEWLLAQRG-OH) | ≥ 15 mg/mL | ≥ 30 mg/mL |  | 
CC[C@H](C)[C@H](NC(=O)[C@H](CO)NC(=O)[C@H](Cc1ccc(O)cc1)NC(=O)[C@H](CC(=O)O)NC(=O)[C@H](CO)NC(=O)[C@@H](NC(=O)[C@H](Cc1ccccc1)NC(=O)[C@@H](NC(=O)CNC(=O)[C@H](CCC(=O)O)NC(=O)C(C)(C)NC(=O)[C@H](Cc1ccc(O)cc1)NC)[C@@H](C)O)[C@@H](C)CC)C(=O)N[C@@H](C)C(=O)N[C@@H](CC(C)C)C(=O)N[C@@H](CC(=O)O)C(=O)N[C@@H](CCCNC(=N)N)C(=O)NC(C)(C)C(=O)N[C@@H](C)C(=O)N[C@@H](CCC(N)=O)C(=O)NC(C)(C)C(=O)N[C@@H](CCCCNC(=O)COCCOCCNC(=O)COCCOCCNC(=O)CC[C@H](NC(=O)CC[C@H](NC(=O)CCCCCCCCCCCCCCCCC(=O)O)C(=O)O)C(=O)O)C(=O)N[C@@H](Cc1ccccc1)C(=O)N[C@H](C(=O)N[C@@H](CC(N)=O)C(=O)N[C@@H](Cc1c[nH]c2ccccc12)C(=O)N[C@@H](CC(C)C)C(=O)N[C@@H](CC(C)C)C(=O)N[C@@H](C)C(=O)N[C@@H](CCC(N)=O)C(=O)N[C@@H](CCCNC(=N)N)C(N)=O)C(C)C [Compound 269] (H-[NMeY][Aib]EGTFISDYSIALDR[Aib]AQ[Aib]K([AEEA-AEEA-γGlu-γGlu-C18 diacid])FVNWLLAQR-NH2) |  | ≥ 7.5 mg/mL |  | 
CC[C@H](C)[C@H](NC(=O)[C@H](CO)NC(=O)[C@H](Cc1ccc(O)cc1)NC(=O)[C@H](CC(=O)O)NC(=O)[C@H](CO)NC(=O)[C@@H](NC(=O)[C@H](Cc1ccccc1)NC(=O)[C@@H](NC(=O)CNC(=O)[C@H](CCC(=O)O)NC(=O)C(C)(C)NC(=O)[C@H](Cc1ccc(O)cc1)NC)[C@@H](C)O)[C@@H](C)CC)C(=O)N[C@@H](C)C(=O)N[C@@H](CC(C)C)C(=O)N[C@@H](CC(=O)O)C(=O)N[C@@H](CCCNC(=N)N)C(=O)NC(C)(C)C(=O)N[C@@H](C)C(=O)N[C@@H](CCC(N)=O)C(=O)NC(C)(C)C(=O)N[C@@H](CCCCNC(=O)COCCOCCNC(=O)COCCOCCNC(=O)CC[C@H](NC(=O)CC[C@H](NC(=O)CCCCCCCCCCCCCCCCC(=O)O)C(=O)O)C(=O)O)C(=O)N[C@@H](Cc1ccccc1)C(=O)N[C@H](C(=O)N[C@@H](CC(N)=O)C(=O)N[C@@H](Cc1c[nH]c2ccccc12)C(=O)N[C@@H](CC(C)C)C(=O)N[C@@H](CC(C)C)C(=O)N[C@@H](C)C(=O)N[C@@H](CCC(N)=O)C(=O)N[C@@H](CO)C(=O)NCC(=O)O)C(C)C [Compound 42] (H-[NMeY][Aib]EGTFISDYSIALDR[Aib]AQ[Aib]K([AEEA-AEEA-γGlu-γGlu-C18 diacid])FVNWLLAQSG-OH) | ≥ 15 mg/mL | ≥ 30 mg/mL |  | 
